Results as given in patent US9708244B2, “Coloring material and method for producing the same” (DAI NIPPON PRINTING CO., LTD., priority 2012, dated 2017).

Columns and labels:
Assay type in all cases: physicochemical
[1] = Evaluation of thermal decomposition temperature (TG-DTA); settings: heating rate 5° C./min to 800° C., extrapolated temperature of TG curve peak
Description: As a reference, alumina was put in a quarts pan. Using horizontal differential thermogravimetric-differential thermal analyzer (TG-DTA) TG8120 (manufactured by Rigaku Corporation), they were measured at a heating rate of 5° C./min to 800° C. The extrapolated temperature of the peak of the thus-obtained TG curve was used as a decomposition point, and the temperature at the decomposition point was used as a thermal decomposition temperature. The thermal decomposition temperature can be used as an indicator of heat resistance.

[2] = Evaluation of weight reduction rate (TG-DTA, held at 230° C.); settings: heated to 230° C. at 20° C./min, kept 60 minutes
Description: As a reference, alumina was put in a quarts pan. Using differential thermogravimetric analyzer (TG-DTA) TG8120 (manufactured by Rigaku Corporation), they were heated to 230° C. at a heating rate of 20° C./min. From the time when they reached 230° C., they were kept at the same temperature for 60 minutes and then measured for the weight reduction rate. The weight reduction rate is calculated by the following formula and can be used as an indicator of heat resistance. Weight reduction rate=(“weight before heating”−“weight after heating”)/“weight before heating”×100(%) <Evaluation of Dyeing Property> (1) Fabric Dyeing

[3] = Evaluation of color change in color materials (absorption spectrum in methanol); settings: 10 mg in 100 mL methanol, diluted 20-fold, 1 cm cell, FIG. 1
Description: First, 10 mg of each of the color materials A and C obtained in Examples 1 and 3 was dissolved in 100 mL of methanol and diluted 20-fold, thereby obtaining a measurement solution. The absorption spectrum of the solution was measured by using a 1 cm quarts cell in spectrophotometer U-3500 manufactured by Hitachi, Ltd. Next, 10 mg of BB7 (monomer) was dissolved in 100 mL of methanol and diluted 20-fold, thereby obtaining a measurement solution as a control product. The absorption spectrum of the solution was measured by the same method as above.

Row | Thermal decomposition temperature [1] [°C] | Weight reduction rate (230° C. for 1 hr) [2] [%] | Color change versus BB7 (absorption spectrum peak form) [3] | SMILES
1 | 245 | −38.3 | – | CCNc1ccc(C(=C2C=CC(=[N+](CC)CC)C=C2)c2ccc(N(CC)CC)cc2)c2ccccc12.Cc1ccc(S(=O)(=O)[O-])cc1 [Color material E]
2 | 236 | −33.8 | – | CCNc1ccc(C(=C2C=CC(=[N+](CC)CC)C=C2)c2ccc(N(CC)CC)cc2)c2ccccc12 [Color material F]

More lines, now with the values behind:

Row | SMILES | Thermal decomposition temperature [1] [°C] | Weight reduction rate (230° C. for 1 hr) [2] [%] | Color change versus BB7 (absorption spectrum peak form) [3]
3 | CCNc1ccc(C(=C2C=CC(=[N+](CC)CC)C=C2)c2ccc(N(CC)CC)cc2)c2ccccc12.[Cl-] [Color material D, Basic Blue 7 (CI-42595)] | 218 | −40.2 | –
4 | CCN(CC)c1ccc(C(=C2C=CC(=[N+](CC)CC)C=C2)c2ccc(NCc3ccc(CNc4ccc(C(=C5C=CC(=[N+](CC)CC)C=C5)c5ccc(N(CC)CC)cc5)c5ccccc45)cc3)c3ccccc23)cc1.[Cl-].[Cl-] [Color material A] | 247 | −28.9 | almost no change in color
5 | CCN(CC)c1ccc(C(=C2C=CC(=[N+](CC)CC)C=C2)c2ccc(NCc3ccc(CNc4ccc(C(=C5C=CC(=[N+](CC)CC)C=C5)c5ccc(N(CC)CC)cc5)c5ccccc45)cc3)c3ccccc23)cc1 [Color material B] | 255 | −29.1 | –
